# Measurements reported in PubChem BioAssay (NCI).
#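 Here, GI50 denotes the concentration required for 50% inhibition of growth. TGI marks complete inhibition of growth.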
# Key:
# Test in all cases: growth of human tumour cells (NCI), 384-well format
# HOP-92 NSCLC = tested on: HOP-92 NSCLC
# LOX IMVI melanoma = tested on: LOX IMVI melanoma
# SW-620 colon = tested on: SW-620 colon
# MALME-3M melanoma = tested on: MALME-3M melanoma
# NCI-H460 NSCLC = tested on: NCI-H460 NSCLC
# ACHN renal = tested on: ACHN renal
# SF-539 CNS = tested on: SF-539 CNS
# NCI/ADR-RES ovarian = tested on: NCI/ADR-RES ovarian
# CAKI-1 renal = tested on: CAKI-1 renal
# HCT-15 colon = tested on: HCT-15 colon
# KM12 colon = tested on: KM12 colon
# SF-295 CNS = tested on: SF-295 CNS
# SF-268 CNS = tested on: SF-268 CNS
smiles,measurement,setting,value
CNCc1ccc(C)c(NC(=O)c2ccc(Nc3nc(-c4ccccc4)c4ccccc4n3)cc2)c1,GI50,HOP-92 NSCLC,1790 nM
same,TGI,HOP-92 NSCLC,3180 nM
same,GI50,LOX IMVI melanoma,1550 nM
same,TGI,LOX IMVI melanoma,2910 nM
same,GI50,SW-620 colon,1850 nM
same,TGI,SW-620 colon,3280 nM
same,GI50,MALME-3M melanoma,1310 nM
same,TGI,MALME-3M melanoma,2590 nM
same,GI50,NCI-H460 NSCLC,1360 nM
same,TGI,NCI-H460 NSCLC,2710 nM
same,GI50,ACHN renal,1840 nM
same,TGI,ACHN renal,3260 nM
same,GI50,SF-539 CNS,1710 nM
same,TGI,SF-539 CNS,3100 nM
same,GI50,NCI/ADR-RES ovarian,1860 nM
same,TGI,NCI/ADR-RES ovarian,3330 nM
same,GI50,CAKI-1 renal,420 nM
same,TGI,CAKI-1 renal,1360 nM
same,GI50,HCT-15 colon,1050 nM
same,TGI,HCT-15 colon,2390 nM
same,GI50,KM12 colon,1420 nM
same,TGI,KM12 colon,2750 nM
same,GI50,SF-295 CNS,1850 nM
same,TGI,SF-295 CNS,3260 nM
same,GI50,SF-268 CNS,1770 nM
same,TGI,SF-268 CNS,3170 nM
